# System: cerebral aneurysm model
# Assay: Inhibitory effect on formation of cerebral aneurysm in cerebral aneurysm model (EvG staining, size of aneurysm)
# Format: in vivo, SD rat
# Conditions: 0.03 mg/5 mL or 0.1 mg/5 mL suspension, 5 mL/kg, forced oral, once a day, Day 1 to Day 27; Day 28; FIG. 5
# Protocol: A rat model of cerebral aneurysm was prepared according to the method disclosed on the literature by Hashimoto et al. (Surgical Neurology 1978, Vol. 10, p. 3-8). Namely, 50 mg/kg of pentobarbital was administrated intraperitoneally to a 7-week-old male SD rat, and the left common carotid artery and the left renal artery were ligated by using 10-0 nylon thread under anesthesia (this is referred to as the surgery for inducing cerebral aneurysm). From the day after surgery (Day 1), the rat was reared with being fed a high-salt diet. During a rearing period, the rat was given free access to water. Forced oral administration of 0.03 mg/5 mL or 0.1 mg/5 mL of the suspension of Compound 1 to the cerebral aneurysm model was conducted once a day at a dose of 5 mL/kg from the day after surgery, i.e., 1 day after surgery (Day 1) to 27 days after surgery (Day 27). It should be noted that forced oral administration of the 0.5% MC solution (0 mg/5 mL of the suspension of Compound 1) to the cerebral aneurysm model was conducted once a day at a dose of 5 mL/kg. The group of these rats was defined as a vehicle group. 28 Days after surgery (Day 28), the right olfactory artery/anterior cerebral artery bifurcation containing cerebral aneurysm was extirpated and was fixed with 4% paraformaldehyde, and then the solution was replaced with a 30% sucrose solution, and thereafter, the extirpated bifurcation was frozen to prepare a specimen of a frozen section having a thickness of 5 μm, by similar procedures to the steps 1) and 2) of the method of Reference Example 2. This specimen was subjected to EvG staining and the formation of cerebral aneurysm was confirmed. The size of cerebral aneurysm was measured and evaluation was conducted. The maximum diameter (Maximum) represents the maximum distance between internal elastic lamina disruption sites observed by EvG staining, the height “Height” represents the maximum value of height defined as the length of the perpendicular line drawn from the line connecting the two ends of internal elastic lamina, and the mean diameter “Mean” represents the mean value of the maximum diameter and the height. This evaluation was conducted on all the rats (8 or 9 rats) of each of the groups, and the mean value of each of the groups was calculated. The administration of 0.1 mg/5 mL of a suspension of Compound 2 to the cerebral aneurysm model was started on the day of the surgery (Day 0) at a dose of 5 mL/kg, and forced oral administration was conducted once a day until 26 days after surgery (Day 26). The size of cerebral aneurysm was measured by using the protocol of Example 1. […] The size of cerebral aneurysm was measured by using the protocol of Example 1. […] The size of cerebral aneurysm was measured by using the protocol of Example 1.
compound,measurement,value
"C[C@H](Oc1ccc(-c2nc(-c3ccc4[nH]cnc4c3)no2)cc1C(F)(F)F)C(F)(F)F.Cl [Compound 1, 5-{5-[3-(trifluoromethyl)-4-{[(2S)-1,1,1-trifluoropropan-2-yl]oxy}phenyl]-1,2,4-oxadiazol-3-yl}-1H-benzimidazole hydrochloride]","formation of cerebral aneurysm (size: Maximum, Height, Mean)",inhibited the formation of cerebral aneurysm

# Reference: patent US9629834B2, “Medicinal composition for inhibiting formation and/or enlargement of cerebral aneurysm or shrinking same” (KYOTO UNIVERSITY, priority 2013, dated 2017)
